Measured values as given in PubChem BioAssay (NCI).
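Test compounds were applied to cells in 96-well plates for 48 hours at 5 doses. The concentration for full growth arrest is given as TGI.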

Legend:
Assay in all cases: NCI tumour cell line growth inhibition, 48 h
BT-549 breast = tested on: BT-549 breast
SR leukemia = tested on: SR leukemia
U251 CNS = tested on: U251 CNS
TK-10 renal = tested on: TK-10 renal
MDA-MB-435 = tested on: MDA-MB-435
NCI-H226 lung = tested on: NCI-H226 lung
DU-145 prostate = tested on: DU-145 prostate
SK-OV-3 ovarian = tested on: SK-OV-3 ovarian
ACHN renal = tested on: ACHN renal
CAKI-1 renal = tested on: CAKI-1 renal
KM12 colon = tested on: KM12 colon
SK-MEL-28 melanoma = tested on: SK-MEL-28 melanoma
RPMI-8226 leukemia = tested on: RPMI-8226 leukemia
OVCAR-4 ovarian = tested on: OVCAR-4 ovarian
SNB-78 CNS = tested on: SNB-78 CNS
SNB-19 CNS = tested on: SNB-19 CNS
SN12C renal = tested on: SN12C renal
A549 NSCLC = tested on: A549 NSCLC
HT29 colon = tested on: HT29 colon
T-47D breast = tested on: T-47D breast

SMILES | TGI (BT-549 breast) [µM] | TGI (SR leukemia) [µM] | TGI (U251 CNS) [µM] | TGI (TK-10 renal) [µM] | TGI (MDA-MB-435) [µM] | TGI (NCI-H226 lung) [µM] | TGI (DU-145 prostate) [µM] | TGI (SK-OV-3 ovarian) [µM] | TGI (ACHN renal) [µM] | TGI (CAKI-1 renal) [µM] | TGI (KM12 colon) [µM] | TGI (SK-MEL-28 melanoma) [µM] | TGI (RPMI-8226 leukemia) [µM] | TGI (OVCAR-4 ovarian) [µM] | TGI (SNB-78 CNS) [µM] | TGI (SNB-19 CNS) [µM] | TGI (SN12C renal) [µM] | TGI (A549 NSCLC) [µM] | TGI (HT29 colon) [µM] | TGI (T-47D breast) [µM]
N=c1c2c(=S)n(-c3ccccc3)c(=S)n(-c3ccccc3)c2nc(SCCCN2CCN(c3cccc(Cl)c3)CC2)n1-c1ccccc1 | > 100 | > 100 | > 100 | > 100 | > 100 | > 100 | > 100 | > 100 | > 100 | > 100 | > 100 | > 100 | > 100 | > 100 | – | – | – | – | – | –
CCCCCCCC/C=C\CCCCCCCC(=O)O | – | – | 231 | – | – | 227 | – | > 500 | – | 206 | > 500 | 329 | 277 | > 352 | 130 | 252 | 199 | 226 | > 500 | –
CCNc1nnc(-c2nsc3ccccc23)s1 | – | > 100 | > 100 | > 100 | – | – | – | – | > 100 | – | > 100 | > 100 | > 100 | > 100 | > 100 | 45.6 | > 100 | > 100 | 93.3 | –
O=C1C=CC2=[N+]([O-])C(c3ccccc3)(c3ccccc3)C(=Nc3ccccc3)C2=C1 | – | 0.763 | 7.32 | 3.27 | – | 22.3 | – | 31.8 | 3.36 | 6.33 | – | – | 7.83 | 3.28 | 15.6 | 31.6 | 3.96 | 29.4 | 5.63 | –
Cc1ccc([N+](=O)[O-])cc1S(=O)(=O)Nc1ccc(C2=NNC(c3ccccc3O)C2)cc1 (stereo not drawn) | 63.5 | 87.7 | – | > 100 | 50.6 | > 100 | > 100 | > 100 | 77 | > 100 | 76.7 | > 100 | > 100 | 63.8 | – | > 100 | 82.9 | > 100 | > 100 | 72.4
CC(=O)Oc1ccc2c(c1)oc1c3ccc(OC(C)=O)cc3n(C)c(=O)c21 | > 100 | > 100 | > 100 | > 100 | > 100 | 53.1 | > 100 | > 100 | > 100 | – | 20.6 | > 100 | – | – | – | > 100 | 66 | > 100 | > 100 | > 100
